Test results reported in US20140349924A1 (Novo Nordisk A/S, priority 2007, published 2014).
One block for each compound: values may come before it.

Experiments:
[1] = freshly excised rat gut sacs (small intestine) incubated in culture medium pH 7.4; conditions: 37° C, up to 2 h
[2] = 293.2 Kelvin; static electric fields or relatively low frequencies; cited from earlier work
[3] = freeze dried from aqueous solutions with pH moved below the isoelectric point; cited from earlier work

fragment found [1]: degradation product (peak ˜5218), 2 h
Compound: Asp^B28 human insulin

Compound: CO [Methanol]
Dielectricity constant, ε* [2]: 33.0

Compound: lysozyme: lysozyme lyophilized from aqueous solution, literature example (Klibanov et al)
Solubility in 1,5 pentanediol [3]: markedly increased
